Data on 24 molecules can be found in patent publication US20230339871A1, “COMPOUNDS AND METHODS OF MODULATING 17B-HYDROXYSTEROID DEHYDROGENASE TYPE 13” (METREA BIOSCIENCES, INC., priority 2020, published 2023).

The IC50 is the concentration that gives 50% inhibition.

In data set [1] the target is T1, recombinant human full-length HSD17B13 protein (Homo sapiens, UniProt Q7Z5P4).
T1 construct: recombinant human full-length HSD17B13 protein; 6xHis (C); made in house; host or cells: HEK293E-253/FH
T1 sequence (Q7Z5P4 20-300): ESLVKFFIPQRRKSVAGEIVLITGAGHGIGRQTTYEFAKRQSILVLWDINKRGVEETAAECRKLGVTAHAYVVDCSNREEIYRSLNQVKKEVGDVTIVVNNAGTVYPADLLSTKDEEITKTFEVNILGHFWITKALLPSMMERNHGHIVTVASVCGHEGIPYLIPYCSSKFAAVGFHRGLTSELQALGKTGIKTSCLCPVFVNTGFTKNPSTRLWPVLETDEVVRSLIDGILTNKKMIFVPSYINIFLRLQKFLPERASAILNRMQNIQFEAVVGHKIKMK
Description: HSD17B13 96 luminescence inhibition assay (NAD(P)H-Glo). The format is biochemical. The protocol: Compounds of the present disclosure were tested for inhibition of HSD17B13 using the following protocol. Briefly, recombinant human full-length HSD17B13 protein with a 6X-C-terminal His tag was expressed in cell line HEK293E-253/FH and purified using Ni^2+-affinity purification. Enzymatic activity was determined through the production of NADH using the NAD(P)H-Glo Detection System (Promega). The inhibitory activity of test compounds was determined in reactions performed at 30° C. in assay buffer consisting of 25 mM EPPS (8.0), 125 mM NaCl, 0.03% Triton X-100, 0.03% BSA, with […] steroid substrate (1,3,5(10), 7-estratetraen-3, 17b-diol (Steraloids E0580)) added from a 2.5 mM DMSO stock and 500 mM NAD. The final percentage of DMSO was 4.5%. After a one-hour incubation, a 20% volume of luciferase Glo-reagent was added and light units captured on a Victor V Plate Reader (Perkin Elmer).
Concentration-response curves for inhibitors were normalized to control samples containing enzyme only (negative control) and sample without enzyme (positive control). 50% inhibition (IC50) values were determined using a nonlinear least squares fit of the data to a four-parameter equation using Prism 6.0 (GraphPad Software, San Diego).

Data set [2] concerns IL-8. In words: IL-8 gene expression in HepG2 cells overexpressing HSD17B13 under fatty acid challenge. The format is cell-based, human. The protocol:
(§1) To examine the effect of HSD17B13 inhibitors on inflammatory cytokine expression HepG2 cells were exposed to various concentrations of HSD17B13 inhibitors. Briefly, HepG2 cells, an immortalized human liver cancer cell line, were modified to overexpress HSD17B13. Cells were grown in EMEM (ATCC) with 10% FBS and penicillin/streptomycin. One day prior to transfection 750,000 cells were plated per well in a 6 well plate and cultured overnight. […] of pCMV6-Entry-HSD17B13 or empty vector (Origene) were transfected using Lipofectamine 3000 (Invitrogen) and the cells were cultured for 24 hours. Cells were split into selection media ([…] G418 (Gibco)) and a stable pool was established and verified by qPCR and western blotting using an anti-Flag antibody (Genscript). HepG2 cells overexpressing HSD17B13 or empty vector control, were seeded at 400,000 cells per well in 12 well plates and cultured overnight. Media was replaced with serum-free EMEM and cultured an additional night. […]
(§2) […] RNA quality and concentration were determined on a Nanodrop. cDNA was synthesized from 1 μg RNA using iScript reverse transcription supermix (Biorad) and rtPCR performed with 1 μl cDNA using SsoAdvanced Universal Probes Supermix (Biorad). […]

The test system of data set [3] is IL-32. In words: IL-32 gene expression in HepG2 cells overexpressing HSD17B13 under fatty acid challenge. The format is cell-based, human. Here is the method:
To examine the effect of HSD17B13 inhibitors on inflammatory cytokine expression HepG2 cells were exposed to various concentrations of HSD17B13 inhibitors. Briefly, HepG2 cells, an immortalized human liver cancer cell line, were modified to overexpress HSD17B13. Cells were grown in EMEM (ATCC) with 10% FBS and penicillin/streptomycin. One day prior to transfection 750,000 cells were plated per well in a 6 well plate and cultured overnight. […] of pCMV6-Entry-HSD17B13 or empty vector (Origene) were transfected using Lipofectamine 3000 (Invitrogen) and the cells were cultured for 24 hours. Cells were split into selection media ([…] G418 (Gibco)) and a stable pool was established and verified by qPCR and western blotting using an anti-Flag antibody (Genscript). HepG2 cells overexpressing HSD17B13 or empty vector control, were seeded at 400,000 cells per well in 12 well plates and cultured overnight. Media was replaced with serum-free EMEM and cultured an additional night. A 12 mM fatty acid stock of oleic acid/palmitate at a 2:1 ratio was prepared in 10% fatty acid free BSA (Sigma) by combining 8 mM oleic acid and 4 mM palmitate and rotating overnight at 30° C. The solution was then sonicated for an additional 45 minutes to solubilize.
[…] The cells were lysed in RLT buffer and RNA purified using a Qiagen RNeasy mini kit. RNA quality and concentration were determined on a Nanodrop. cDNA was synthesized from 1 μg RNA using iScript reverse transcription supermix (Biorad) and rtPCR performed with 1 μl cDNA using SsoAdvanced Universal Probes Supermix (Biorad). Taqman probes (Thermo Fisher) were used to look at effects of fatty acids and HSD17B13 inhibitors on IL-8 and IL-32 gene expression using GAPDH as an endogenous control.

The test system of data set [4] is HepG2 cells. In words: Toxicity to HepG2 cells in the cytokine expression experiment. The format is cell-based, human. The following applies: 30 μM. The protocol: as §1, §2
For data set [5] the following is noted: RESOLVE-IT, NCT02704403; cited from earlier work.
[6] abbreviates: 3 µM, 10 µM, or 30 µM, saturated fatty acid NASH challenge.
The mark [7] stands for this setting: 3-hour exposure to 3 μM, 10 μM, or 30 μM, fold change relative to untreated cells.

As for `CS(=O)(=O)c1cccc(CN2C(=O)S/C(=C\c3c(F)cc(F)c(O)c3F)C2=O)c1` [Compound 5, (Z)-3-(3-(methylsulfonyl)benzyl)-5-(2,4,6-trifluoro-3-hydroxybenzylidene) thiazolidine-2,4-dione], the IC50 in data set [1] was no more than 1 µM. Besides, the “expression of IL-8 (FIG. 1A)” value in data set [2] (setting [6]) is given as “decreased expression”. Further, in data set [2] (setting [7]), the “relative expression levels of IL-8” value is reported as “decreased”. Also, in data set [3] (3 μM dose), the “reduction in IL-32 expression” value is 60-70%. Further, in data set [3] (setting [6]), the “expression of IL-32 (FIG. 1B)” value is listed as “decreased expression”. Also, the “relative expression levels of IL-32” value in data set [3] (setting [7]) is reported as “decreased”. Moreover, in data set [4], the “toxicity to the cells” value is recorded as “some toxicity”. In the case of `O=C1S/C(=C\c2ccc(F)c(O)c2)C(=O)N1Cc1cccc(C(F)(F)F)c1` [Compound 17, (Z)-5-(4-fluoro-3-hydroxybenzylidene)-3-(3-(trifluoromethyl)benzyl)thiazolidine-2,4-dione], the IC50 in data set [1] is 1 to 5 µM.

On to `NC(=O)c1cccc(CN2C(=O)S/C(=C\c3ccc(F)c(O)c3)C2=O)c1` [Compound 18, (Z)-3-((5-(4-fluoro-3-hydroxybenzylidene)-2,4-dioxothiazolidin-3-yl)methyl) benzamide], for which the 50% inhibitory concentration (IC50) in data set [1] is 1 to 5 µM. With `N#Cc1cccc(CN2C(=O)S/C(=C\c3ccc(F)c(O)c3)C2=O)c1` [Compound 19, (Z)-3-((5-(4-fluoro-3-hydroxybenzylidene)-2,4-dioxothiazolidin-3-yl)methyl) benzonitrile], the IC50 in data set [1] lay in the range of 1 to 5 µM. As to `CS(=O)(=O)Nc1cccc(CN2C(=O)S/C(=C\c3ccc(F)c(O)c3)C2=O)c1` [Compound 20, N-(3-{[(5Z)-5-[(4-fluoro-3-hydroxyphenyl)methylidene]-2,4-dioxo-1,3-thiazolidin-3-yl]methyl}phenyl)methanesulfonamide], the IC50 in data set [1] was greater than 5 µM. The same measure, in the same setting: to `COc1cc(CN2C(=O)S/C(=C\c3c(F)cc(F)c(O)c3F)C2=O)ccn1` [Compound 22, (Z)-3-((2-methoxypyridin-4-yl)methyl)-5-(2,4,6-trifluoro-3-hydroxybenzylidene) thiazolidine-2,4-dione] belongs no more than 1 µM; to `COc1ccc(CN2C(=O)S/C(=C\c3c(F)cc(F)c(O)c3F)C2=O)cn1` [Compound 23, (Z)-3-((6-methoxypyridin-3-yl)methyl)-5-(2,4,6-trifluoro-3-hydroxybenzylidene)thiazolidine-2,4-dione], 1 to 5 µM; to `O=C(NCc1cccc(O)c1)c1ccc2cc(F)c(O)cc2n1` [Compound 24, 6-fluoro-7-hydroxy-N-(3-hydroxybenzyl)quinoline-2-carboxamide], 1 to 5 µM. On the same count and under the same terms, in the case of `O=C(NCc1cccc(-c2nnn[nH]2)c1)c1ccc2cc(F)c(O)cc2n1` [Compound 25, N-(3-(1H-tetrazol-5-yl)benzyl)-6-fluoro-7-hydroxyquinoline-2-carboxamide] it was greater than 5 µM; in that of `O=C(NCc1cccc(O)c1)c1cc2cc(O)c(F)cc2cn1` [Compound 26, 7-fluoro-6-hydroxy-N-(3-hydroxybenzyl)isoquinoline-3-carboxamide], greater than 5 µM; in that of `N#Cc1cccc(CNC(=O)c2ccc3cc(F)c(O)cc3n2)c1` [Compound 27, N-(3-cyanobenzyl)-6-fluoro-7-hydroxyquinoline-2-carboxamide], greater than 5 µM. `O=C(c1ccc(F)c(O)c1)c1ccc(-c2ccc(F)c(O)c2F)s1` [Compound 28, (5-(2,4-difluoro-3-hydroxyphenyl)thiophen-2-yl)(4-fluoro-3-hydroxyphenyl) methanone]: the IC50 in data set [1] lay in the range of 1 to 5 µM. The same measure, in the same setting: to `O=C(c1ccc(-c2ccc(F)c(O)c2F)s1)c1c(F)cc(F)c(O)c1F` [Compound 29, (5-(2,4-difluoro-3-hydroxyphenyl)thiophen-2-yl)(2,4,6-trifluoro-3-hydroxyphenyl)methanone] belongs 1 to 5 µM. Same read-out and setting: in the case of `O=C(c1cc(O)c(F)c(F)c1)c1ccc(-c2ccc(F)c(O)c2F)s1` [Compound 30, (5-(2,4-difluoro-3-hydroxyphenyl)thiophen-2-yl)(3,4-difluoro-5-hydroxyphenyl) methanone] it was 1 to 5 µM; in that of `O=C(c1ccc(-c2ccc(F)c(O)c2F)s1)c1cc(F)c(F)c(O)c1F` [Compound 31, (5-(2,4-difluoro-3-hydroxyphenyl)thiophen-2-yl)(2,4,5-trifluoro-3-hydroxyphenyl) methanone], 1 to 5 µM; in that of `O=C(c1ccc(-c2ccc(F)c(O)c2F)s1)c1ccc(F)c(O)c1F` [Compound 32, (2,4-difluoro-3-hydroxyphenyl)(5-(2,4-difluoro-3-hydroxyphenyl)thiophen-2-yl)methanone], 1 to 5 µM. On to `NS(=O)(=O)c1cccc(CN2C(=O)S/C(=C\c3ccc(F)c(O)c3)C2=O)c1` [Compound 33, (Z)-3-((5-(4-fluoro-3-hydroxybenzylidene)-2,4-dioxothiazolidin-3-yl)methyl) benzenesulfonamide], for which, in data set [1], the IC50 is no more than 1 µM. With `NS(=O)(=O)c1cccc(CN2C(=O)S/C(=C\c3c(F)cc(F)c(O)c3F)C2=O)c1` [Compound 34, (Z)-3-((2,4-dioxo-5-(2,4,6-trifluoro-3-hydroxybenzylidene)thiazolidin-3-yl)methyl)benzenesulfonamide], the IC50 in data set [1] was no more than 1 µM. Take `O=C1S/C(=C\c2c(F)cc(F)c(O)c2F)C(=O)N1Cc1ccc(=O)[nH]c1` [Compound 35, (5Z)-3-[(6-oxo-1,6-dihydropyridin-3-yl)methyl]-5-[(2,4,6-trifluoro-3-hydroxyphenyl)methylidene]-1,3-thiazolidine-2,4-dione]: the IC50 in data set [1] was no more than 1 µM. With `O=C1S/C(=C\c2c(F)cc(F)c(O)c2F)C(=O)N1Cc1cc[nH]c(=O)c1` [Compound 36, (Z)-3-((2-oxo-1,2-dihydropyridin-4-yl)methyl)-5-(2,4,6-trifluoro-3-hydroxybenzylidene)thiazolidine-2,4-dione], in data set [1], the IC50 was 1 to 5 µM. Same read-out and setting: to `O=C1S/C(=C\c2c(F)ccc(O)c2F)C(=O)N1Cc1cccc(O)c1` [Compound 37, (Z)-5-(2,6-difluoro-3-hydroxybenzylidene)-3-(3-hydroxybenzyl)thiazolidine-2,4-dione] belongs greater than 5 µM.

Regarding `O=C1S/C(=C\c2ccc3nn[nH]c3c2)C(=O)N1Cc1cccc(O)c1` [Compound 38, (Z)-5-((1H-benzo[d][1,2,3]triazol-6-yl)methylene)-3-(3-hydroxybenzyl)thiazolidine-2,4-dione], the IC50 in data set [1] was no more than 1 µM. As to `COc1cccc(CNC(=O)c2ccc3cc(F)c(O)c(F)c3n2)c1` [Compound 39, 6,8-difluoro-7-hydroxy-N-[(3-methoxyphenyl)methyl]quinoline-2-carboxamide], in data set [1], the IC50 was 1 to 5 µM. On to `CSc1ccc(C(=O)/C=C/c2cc(C)c(OC(C)(C)C(=O)O)c(C)c2)cc1` [Elafibranor], for which, in data set [5], the “Status (as of May 2020)” value is recorded as “Completed - failed”.
